From patent publication US9718817B2, “Aryl and heteroaryl ether compounds as ROR gamma modulators” (Glenmark Pharmaceuticals S.A., priority 2014, dated 2017)

Target: T1, GST-tagged ROR gamma ligand binding domain (LBD) (Homo sapiens, UniProt P51449)
T1 construct: purchased Invitrogen
T1 sequence (P51449 269-508 limits assumed): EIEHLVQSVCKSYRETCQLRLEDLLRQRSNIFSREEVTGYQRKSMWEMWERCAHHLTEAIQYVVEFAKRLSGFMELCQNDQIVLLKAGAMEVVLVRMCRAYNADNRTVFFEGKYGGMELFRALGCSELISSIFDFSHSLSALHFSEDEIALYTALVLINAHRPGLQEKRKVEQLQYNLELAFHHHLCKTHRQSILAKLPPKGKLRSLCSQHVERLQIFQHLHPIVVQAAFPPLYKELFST
Assay: TR-FRET assay for ROR gamma (LanthaScreen co-activator peptide recruitment)
Type: biochemical
Conditions: for IC50: class symbols, from dose response curve; for inhibition at 1 µM: compound 1 μM; for inhibition at 1 µM / inhibition at 10 µM: TR-FRET ratio 520/495, percent of control; for inhibition at 10 µM: compound 10 μM
From the text: The compounds described herein were screened for ROR gamma modulator activity using the TR-FRET assay by Lantha Screen as described in JBC 2011, 286, 26: 22707-10; and Drug Metabolism and Disposition 2009, 37, 10: 2069-78.
The assay is based on the principle that binding of the agonist to the ROR gamma causes a conformational change around helix 12 in the ligand binding domain, resulting in higher affinity for the co-activator peptide. ROR gamma being constitutively active, the Fluorescein-D22 co-activator peptide used in the assay is recruited in the absence of a ligand. Binding of the co-activator peptide, causes an increase in the TR-FRET signal while binding of an antagonist decreases the recruitment of the co-activator peptide, causing a decrease in the TR-FRET signal compared to control with no compound. The assay was performed using a two-step procedure, pre-incubation step with the compound followed by the detection step on addition of the anti-GST tagged terbium (Tb) and fluorescein tagged fluorophores as the acceptor.
Test compounds or reference compounds such as T0901317 (Calbiochem) were dissolved in dimethylsulfoxide (DMSO) to prepare 10.0 mM stock solutions and diluted to the desired concentration. The final concentration of DMSO in the reaction was 4% (v/v). The assay mixture was prepared by mixing 10 nM of the GST-tagged ROR gamma ligand binding domain (LBD) in the assay buffer containing 25 mM HEPES (pH 7.4), 100 mM NaCl, 5 mM DTT and 0.01% BSA with or without the desired concentration of the compound. The reaction was incubated at 22° C. for 1 hour. The pre-incubation step was terminated by addition of the detection mixture containing 300 nM Fluorescein-D22 co-activator peptide and 10 nM lantha screen Tb-anti GST antibody into the reaction mixture. After shaking for 5 minutes the reaction was further incubated for 1 hour at room temperature and read at 4° C. on an Infinite F500 reader as per the kit instructions (Invitrogen). The inhibition of test compound was calculated based on the TR-FRET ratio of 520/495. The activity was calculated as a percent of control reaction. IC50 values were calculated from dose response curve by nonlinear regression analysis using GraphPad Prism software.
Percentage inhibition at concentrations of 1.0 μM and 10.0 μM are given in the table along with IC50 (nM) details for selected examples.

| SMILES | IC50 [µM] | inhibition at 1 µM [%] | inhibition at 10 µM [%] |
| --- | --- | --- | --- |
| CCS(=O)(=O)c1ccc(CC(=O)Nc2ccc(OC3(c4ccc(Cl)cc4Cl)COC3)c(F)c2)cc1 [Example 101, N-{4-[3-(2,4-Dichloro-phenyl)-oxetan-3-yloxy]-3-fluoro-phenyl}-2-(4-ethanesulfonyl-phenyl)-acetamide] | < 0.05 | 86.6 | 82.3 |
| CCS(=O)(=O)c1ccc(CC(=O)Nc2ccc(OC(C)(C)c3ccc(F)cc3F)c(F)c2)cc1 [Example 107, N-{4-[1-(2,4-Difluoro-phenyl)-1-methyl-ethoxy]-3-fluoro-phenyl}-2-(4-ethanesulfonyl-phenyl)-acetamide] | – | 59 | 59.5 |
| CCS(=O)(=O)c1ccc(CC(=O)Nc2ccc(OC3(c4ccc(F)c(C(F)(F)F)c4)CCOCC3)cc2)cc1 [Example 42, 2-(4-Ethanesulfonyl-phenyl)-N-{4-[4-(4-fluoro-3-trifluoromethyl-phenyl)-tetrahydro-pyran-4-yloxy]-phenyl}-acetamide] | – | 65.9 | 86 |
| CCS(=O)(=O)c1ccc(CC(=O)Nc2ccc(OC(C)(C)c3ccc(Cl)c(Cl)c3)nc2)cc1 [Example 59, N-{6-[1-(3,4-Dichloro-phenyl)-1-methyl-ethoxy]-pyridin-3-yl}-2-(4-ethanesulfonyl-phenyl)-acetamide] | < 0.05 | 71.8 | 86.7 |
| CCn1c(C2(Oc3ccc(NC(=O)Cc4ccc(S(=O)(=O)CC)cc4)cc3)CCC2)nc2cc(F)ccc21 [Example 26, 2-(4-Ethanesulfonyl-phenyl)-N-{4-[1-(1-ethyl-5-fluoro-1H-benzoimidazol-2-yl)-cyclobutoxy]-phenyl}-acetamide] | 0.05 to 0.1 | 80.5 | 90.9 |
| CCS(=O)(=O)c1ccc(CC(=O)Nc2ccc(OC3(c4ccc(Cl)c(F)c4)CCNCC3)cc2)cc1 [Example 43, N-(4-{[4-(4-Chloro-3-fluorophenyl)piperidin-4-yl]oxy}phenyl)-2-[4-(ethylsulfonyl)phenyl]acetamide] | – | 27.3 | 55 |
| CCS(=O)(=O)c1ccc(CC(=O)Nc2ccc(C#CC(C)(C)Oc3ccc(Cl)c(Cl)c3)cc2)cc1 [Example 62, N-{4-[3-(3,4-Dichlorophenoxy)-3-methylbut-1-yn-1-yl]phenyl}-2-[4-(ethylsulfonyl)phenyl]acetamide] | < 0.05 | 86.3 | 90.2 |
| CCn1c(C2(Oc3ccc(NC(=O)Cc4ccc(S(=O)(=O)CC)cc4)cc3)CC2)nc2cc(Cl)ccc21 [Example 24, N-{4-[1-(5-Chloro-1-ethyl-1H-benzoimidazol-2-yl)-cyclopropoxy]-phenyl}-2-(4-ethanesulfonyl-phenyl)-acetamide] | > 0.1 | 65.7 | 85.6 |
| CCS(=O)(=O)c1ccc(CC(=O)Nc2ccc3c(c2)nc(C(C)(C)Oc2ccc(F)cc2F)n3C(C)C)cc1 [Example 117, N-{2-[1-(2,4-Difluoro-phenoxy)-1-methyl-ethyl]-1-isopropyl-1H-benzoimidazol-5-yl}-2-(4-ethanesulfonyl-phenyl)-acetamide] | > 0.1 | 82.7 | 86.7 |
| CCS(=O)(=O)c1ccc(CC(=O)Nc2ccc(C#CCOc3ccc(Cl)cc3Cl)cc2)cc1 [Example 60, N-{4-[3-(2,4-Dichlorophenoxy)prop-1-yn-1-yl]phenyl}-2-[4-(ethylsulfonyl)phenyl]acetamide] | > 0.1 | 92.6 | 90.4 |
| CCN(C(=O)C(C)(C)Oc1ccc(NC(=O)Cc2ccc(S(=O)(=O)CC)cc2)cc1)c1ccc(Cl)cc1Cl [Example 129, N-(2,4-Dichlorophenyl)-N-ethyl-2-(4-(2-(4-(ethylsulfonyl)phenyl)acetamido)phenoxy)-2-methylpropanamide] | – | 2.49 | 8.35 |
| CCS(=O)(=O)c1ccc(CC(=O)Nc2ccc(OC3(c4ccc(Cl)c(F)c4)CCCCC3)cc2)cc1 [Example 124, N-{4-[1-(4-Chloro-3-fluorophenyl)-cyclohexyloxy]-phenyl}-2-(4-ethanesulfonyl-phenyl)-acetamide] | < 0.05 | 82.2 | 84.8 |
| CCS(=O)(=O)c1ccc(CC(=O)Nc2cc(F)c(OC(C)(C)c3ccc(Cl)cc3Cl)c(F)c2)cc1 [Example 109, N-{4-[1-(2,4-Dichloro-phenyl)-1-methyl-ethoxy]-3,5-difluoro-phenyl}-2-(4-ethanesulfonyl-phenyl)-acetamide] | – | 16.6 | 17.2 |
| CCS(=O)(=O)c1ccc(CC(=O)Nc2ccc(OC3(c4ccc(Cl)cc4Cl)CCC3)c(F)c2)cc1 [Example 139, N-(4-((1-(2,4-Dichlorophenyl)cyclobutyl)oxy)-3-fluorophenyl)-2-(4-(ethylsulfonyl)phenyl)acetamide] | < 0.05 | 86.3 | 82.6 |
| CCn1c(C(C)(C)Oc2cc(F)ccc2F)nc2cc(NC(=O)Cc3ccc(S(=O)(=O)CC)cc3)ccc21 [Example 126, N-{2-[1-(2,5-Difluorophenoxy)-1-methylethyl]-1-ethyl-1H-benzoimidazol-5-yl}-2-(4-ethanesulfonylphenyl)-acetamide] | < 0.05 | 85.9 | 89.5 |
| CCS(=O)(=O)c1ccc(CC(=O)Nc2ccc(C#CC(C)(C)Oc3ccc(F)c(F)c3F)cc2)cc1 [Example 72, 2-(4-Ethanesulfonyl-phenyl)-N-{4-[3-methyl-3-(2,3,4-trifluoro-phenoxy)-but-1-yn-1-yl]-phenyl}-acetamide] | < 0.05 | 76.2 | 79.7 |
| CCS(=O)(=O)c1ccc(CC(=O)Nc2ccc(OC(C)(C)c3ccc(F)c(F)c3)cc2)cc1 [Example 1, N-(4-{[2-(3,4-Difluorophenyl)propan-2-yl]oxy}phenyl)-2-[4(ethylsulfonyl)phenyl]acetamide] | – | 47.7 | 74.3 |
| CCn1c(C(F)(F)Oc2ccc(NC(=O)Cc3ccc(S(=O)(=O)CC)cc3)cc2)nc2cc(Cl)ccc21 [Example 22, N-{4-[(5-Chloro-1-ethyl-1H-benzoimidazol-2-yl)-difluoro-methoxy]-phenyl}-2-(4-ethanesulfonyl-phenyl)-acetamide] | – | 74.4 | 82.8 |
| CCC(CC)(Oc1ccc(NC(=O)Cc2ccc(S(=O)(=O)CC)cc2)cc1)c1ccc(Cl)c(F)c1 [Example 12, N-{4-[1-(4-Chloro-3-fluoro-phenyl)-1-ethyl-propoxy]-phenyl}-2-(4-ethanesulfonyl-phenyl)-acetamide] | 0.05 to 0.1 | 73.9 | 85.4 |
| CCn1c(C(C)(C)Oc2ccc(Cl)cn2)nc2cc(NC(=O)Cc3ccc(S(=O)(=O)CC)cc3)ccc21 [Example 94, N-{2-[1-(5-Chloro-pyridin-2-yloxy)-1-methyl-ethyl]-1-ethyl-1H-benzoimidazol-5-yl}-2-(4-ethanesulfonyl-phenyl)-acetamide] | > 0.1 | 78 | 90.1 |
| CCS(=O)(=O)c1ccc(CC(=O)Nc2ccc(OC(C)(C)Cn3c(C)cc4cc(F)ccc43)cc2)cc1 [Example 30, 2-[4-(Ethylsulfonyl)phenyl]-N-(4-{[1-(5-fluoro-2-methyl-1H-indol-1-yl)-2-methylpropan-2-yl]oxy}phenyl)acetamide] | – | 67.7 | 70.7 |
| CCS(=O)(=O)c1ccc(CC(=O)Nc2ccc3c(c2)nc(C(C)(C)Oc2ccc(F)cc2F)n3C2CC2)cc1 [Example 125, N-{1-Cyclopropyl-2-[1-(2,4-difluorophenoxy)-1-methylethyl]-1H-benzoimidazol-5-yl}-2-(4-ethanesulfonyl-phenyl)-acetamide] | < 0.05 | 89.2 | 90.4 |
| CCS(=O)(=O)c1ccc(CC(=O)Nc2ccc(OC(C)(C)Cn3ccc4cc(Cl)ccc43)cc2)cc1 [Example 29, N-(4-{[1-(5-Chloro-1H-indol-1-yl)-2-methylpropan-2-yl]oxy}phenyl)-2-[4-(ethylsulfonyl)phenyl]acetamide] | < 0.05 | 80.3 | 82.8 |
